# Legend:
# [1] = target: Mitogen-activated protein kinase kinase kinase 2 (Homo sapiens) (UniProt Q9Y2U5); conditions: Compound concentration 1000.0 nM
# [2] = target: Serine/threonine-protein kinase 32B (Homo sapiens) (UniProt Q9NY57); conditions: Compound concentration 1000.0 nM
# [3] = target: Ribosomal protein S6 kinase alpha-2 (Homo sapiens) (UniProt Q15349); conditions: Compound concentration 1000.0 nM
# [4] = target: Tyrosine-protein kinase Mer (Homo sapiens) (UniProt Q12866); conditions: Compound concentration 1000.0 nM
# [5] = target: Mast/stem cell growth factor receptor Kit (Homo sapiens) (UniProt P10721); conditions: Compound concentration 1000.0 nM
# [6] = target: Polyunsaturated fatty acid lipoxygenase ALOX15 (Oryctolagus cuniculus) (UniProt P12530); assay: 15LO Eurofins-Panlabs selectivity data (BI); conditions: Compound concentration 10.0 uM
# [7] = tested on: Receptor-type tyrosine-protein kinase FLT3 (Homo sapiens), P36888 [D835H]; conditions: Compound concentration 1000.0 nM
# [8] = target: Serine/threonine-protein kinase DCLK2 (Homo sapiens) (UniProt Q8N568); conditions: Compound concentration 1000.0 nM
# [9] = target: Dual serine/threonine and tyrosine protein kinase (Homo sapiens) (UniProt Q6XUX3); conditions: Compound concentration 1000.0 nM
# [10] = target: Myosin-IIIa (Homo sapiens) (UniProt Q8NEV4); conditions: Compound concentration 1000.0 nM
# [11] = target: LIM domain kinase 2 (Homo sapiens) (UniProt P53671); conditions: Compound concentration 1000.0 nM
# Sequence of LIM domain kinase 2 (Homo sapiens) (P53671 whole entry, looked up, the tested form may be a part): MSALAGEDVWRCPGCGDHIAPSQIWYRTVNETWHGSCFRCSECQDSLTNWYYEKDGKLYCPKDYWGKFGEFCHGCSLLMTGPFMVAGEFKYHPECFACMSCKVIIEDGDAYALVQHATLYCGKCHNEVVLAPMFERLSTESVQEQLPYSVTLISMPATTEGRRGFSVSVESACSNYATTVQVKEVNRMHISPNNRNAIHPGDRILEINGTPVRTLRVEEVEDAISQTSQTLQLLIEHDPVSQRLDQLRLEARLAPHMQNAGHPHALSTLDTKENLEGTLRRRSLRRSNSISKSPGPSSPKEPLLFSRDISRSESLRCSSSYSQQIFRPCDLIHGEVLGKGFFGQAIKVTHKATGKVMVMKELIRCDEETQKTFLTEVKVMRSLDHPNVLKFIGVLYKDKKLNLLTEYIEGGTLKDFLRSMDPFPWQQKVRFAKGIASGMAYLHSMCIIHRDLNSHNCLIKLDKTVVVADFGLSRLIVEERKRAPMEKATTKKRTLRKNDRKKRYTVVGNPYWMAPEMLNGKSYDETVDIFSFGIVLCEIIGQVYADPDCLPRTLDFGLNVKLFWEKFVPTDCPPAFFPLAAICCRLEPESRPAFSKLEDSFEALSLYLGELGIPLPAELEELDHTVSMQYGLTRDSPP
# [12] = target: Calcium/calmodulin-dependent protein kinase type IV (Homo sapiens) (UniProt Q16566); conditions: Compound concentration 1000.0 nM
# [13] = target: Cyclin-dependent kinase 18 (Homo sapiens) (UniProt Q07002); conditions: Compound concentration 1000.0 nM
# Sequence of Cyclin-dependent kinase 18 (Homo sapiens) (Q07002 whole entry): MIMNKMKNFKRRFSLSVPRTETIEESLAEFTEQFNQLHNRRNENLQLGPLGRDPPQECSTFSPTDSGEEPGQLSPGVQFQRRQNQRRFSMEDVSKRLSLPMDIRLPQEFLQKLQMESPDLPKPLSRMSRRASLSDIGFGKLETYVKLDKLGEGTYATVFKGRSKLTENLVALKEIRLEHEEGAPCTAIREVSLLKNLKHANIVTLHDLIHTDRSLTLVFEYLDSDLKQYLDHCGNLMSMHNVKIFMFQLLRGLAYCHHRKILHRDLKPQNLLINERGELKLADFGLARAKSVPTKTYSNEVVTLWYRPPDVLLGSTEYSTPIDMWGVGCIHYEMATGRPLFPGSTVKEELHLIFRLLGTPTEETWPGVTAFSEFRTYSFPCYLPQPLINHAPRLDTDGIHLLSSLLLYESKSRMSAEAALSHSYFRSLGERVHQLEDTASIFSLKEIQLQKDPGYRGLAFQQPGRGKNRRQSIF
# [14] = target: Interstitial collagenase (Homo sapiens) (UniProt P03956); assay: PEP_MMP-1 Eurofins-Panlabs selectivity data (BI); conditions: Compound concentration 10.0 uM
# [15] = target: Serine/threonine-protein kinase MRCK alpha (Homo sapiens) (UniProt Q5VT25); conditions: Compound concentration 1000.0 nM
# [16] = target: Glutamate receptor ionotropic, NMDA 1 (Rattus norvegicus) (UniProt P35439); assay: GLUTAMAT/R Eurofins-Panlabs selectivity data (BI); conditions: Compound concentration 10.0 uM
# [17] = target: Muscarinic acetylcholine receptor M2 (Homo sapiens) (UniProt P08172); conditions: Compound concentration 10.0 uM
# [18] = target: Beta-adrenergic receptor kinase 1 (Homo sapiens) (UniProt P25098); conditions: Compound concentration 1000.0 nM
# [19] = tested on: Phosphatidylinositol 4,5-bisphosphate 3-kinase catalytic subunit alpha isoform (Homo sapiens), P42336 [H1047Y]; conditions: Compound concentration 1000.0 nM
# [20] = target: Cyclin-dependent kinase 13 (Homo sapiens) (UniProt Q14004); conditions: Compound concentration 1000.0 nM
# [21] = target: 5-hydroxytryptamine receptor 1A (Homo sapiens) (UniProt P08908); conditions: Compound concentration 10.0 uM
# [22] = target: Uncharacterized serine/threonine-protein kinase SBK3 (Homo sapiens) (UniProt P0C264); conditions: Compound concentration 1000.0 nM
# [23] = tested on: Mast/stem cell growth factor receptor Kit (Homo sapiens), P10721 [D816V]; conditions: Compound concentration 1000.0 nM
# [24] = target: Serine/threonine-protein kinase MARK1 (Homo sapiens) (UniProt Q9P0L2); conditions: Compound concentration 1000.0 nM
# [25] = target: Serine/threonine-protein kinase 33 (Homo sapiens) (UniProt Q9BYT3); conditions: Compound concentration 1000.0 nM
# Sequence of Serine/threonine-protein kinase 33 (Homo sapiens) (Q9BYT3 whole entry, looked up): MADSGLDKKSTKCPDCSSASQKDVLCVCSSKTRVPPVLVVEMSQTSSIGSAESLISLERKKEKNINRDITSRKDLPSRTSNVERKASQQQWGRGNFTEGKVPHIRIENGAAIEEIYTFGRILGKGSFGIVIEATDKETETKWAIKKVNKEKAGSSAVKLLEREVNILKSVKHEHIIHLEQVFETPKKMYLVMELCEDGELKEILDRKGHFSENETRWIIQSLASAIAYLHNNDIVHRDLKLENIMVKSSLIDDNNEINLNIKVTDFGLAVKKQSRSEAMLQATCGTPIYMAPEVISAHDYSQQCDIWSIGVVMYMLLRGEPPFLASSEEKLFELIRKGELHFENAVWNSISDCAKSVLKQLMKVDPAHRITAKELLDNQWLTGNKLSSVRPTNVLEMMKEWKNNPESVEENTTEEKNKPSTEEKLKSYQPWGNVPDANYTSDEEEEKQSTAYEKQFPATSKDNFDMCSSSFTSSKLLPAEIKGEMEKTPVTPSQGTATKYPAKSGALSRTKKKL
# [26] = tested on: Proto-oncogene tyrosine-protein kinase receptor Ret (Homo sapiens), P07949 [M918T]; conditions: Compound concentration 1000.0 nM
# [27] = target: Phosphatidylinositol 4-phosphate 3-kinase C2 domain-containing subunit beta (Homo sapiens) (UniProt O00750); conditions: Compound concentration 1000.0 nM
# [28] = target: Rhodopsin kinase GRK7 (Homo sapiens) (UniProt Q8WTQ7); conditions: Compound concentration 1000.0 nM
# Sequence of Rhodopsin kinase GRK7 (Homo sapiens) (Q8WTQ7 whole entry): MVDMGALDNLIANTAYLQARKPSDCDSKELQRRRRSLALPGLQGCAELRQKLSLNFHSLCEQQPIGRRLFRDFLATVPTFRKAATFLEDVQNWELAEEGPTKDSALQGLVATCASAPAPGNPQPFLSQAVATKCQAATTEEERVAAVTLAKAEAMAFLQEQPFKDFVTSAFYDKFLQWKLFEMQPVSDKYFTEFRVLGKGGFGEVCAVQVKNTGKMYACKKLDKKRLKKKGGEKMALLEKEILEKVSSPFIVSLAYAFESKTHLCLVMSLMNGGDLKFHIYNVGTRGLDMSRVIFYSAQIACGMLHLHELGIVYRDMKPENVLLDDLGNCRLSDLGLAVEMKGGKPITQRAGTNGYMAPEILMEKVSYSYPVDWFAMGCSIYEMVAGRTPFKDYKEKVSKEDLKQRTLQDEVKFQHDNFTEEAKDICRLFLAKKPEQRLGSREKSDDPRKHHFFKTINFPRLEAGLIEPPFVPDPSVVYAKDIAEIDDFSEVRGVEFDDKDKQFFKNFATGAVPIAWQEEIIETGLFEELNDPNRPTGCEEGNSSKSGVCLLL
# [29] = target: Non-receptor tyrosine-protein kinase TNK1 (Homo sapiens) (UniProt Q13470); conditions: Compound concentration 1000.0 nM
# Sequence of Non-receptor tyrosine-protein kinase TNK1 (Homo sapiens) (Q13470 whole entry): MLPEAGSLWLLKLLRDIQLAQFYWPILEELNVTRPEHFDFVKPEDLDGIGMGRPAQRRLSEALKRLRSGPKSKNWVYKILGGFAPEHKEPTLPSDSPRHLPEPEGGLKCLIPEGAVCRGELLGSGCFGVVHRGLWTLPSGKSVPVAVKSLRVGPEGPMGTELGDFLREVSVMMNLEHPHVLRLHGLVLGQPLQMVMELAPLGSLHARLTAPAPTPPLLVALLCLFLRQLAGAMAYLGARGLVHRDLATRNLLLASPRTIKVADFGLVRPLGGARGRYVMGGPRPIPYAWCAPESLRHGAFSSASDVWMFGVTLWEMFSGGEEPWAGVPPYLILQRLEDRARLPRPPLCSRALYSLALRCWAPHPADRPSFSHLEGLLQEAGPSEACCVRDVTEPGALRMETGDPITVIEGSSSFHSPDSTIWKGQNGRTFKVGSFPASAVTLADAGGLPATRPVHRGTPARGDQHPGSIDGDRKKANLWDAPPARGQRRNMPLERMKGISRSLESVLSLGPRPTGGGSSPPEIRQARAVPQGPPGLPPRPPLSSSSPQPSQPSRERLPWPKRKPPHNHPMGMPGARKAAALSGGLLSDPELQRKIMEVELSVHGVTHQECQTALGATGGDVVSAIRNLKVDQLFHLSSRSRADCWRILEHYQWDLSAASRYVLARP
# [30] = target: Tyrosine-protein kinase Srms (Homo sapiens) (UniProt Q9H3Y6); conditions: Compound concentration 1000.0 nM
# [31] = target: STE20-like serine/threonine-protein kinase (Homo sapiens) (UniProt Q9H2G2); conditions: Compound concentration 1000.0 nM
# [32] = tested on: ALK tyrosine kinase receptor (Homo sapiens), Q9UM73 [L1196M]; conditions: Compound concentration 1000.0 nM
# [33] = target: Calcium/calmodulin-dependent protein kinase type 1 (Homo sapiens) (UniProt Q14012); conditions: Compound concentration 1000.0 nM
# [34] = target: Serine/threonine-protein kinase TNNI3K (Homo sapiens) (UniProt Q59H18); conditions: Compound concentration 1000.0 nM
# [35] = target: Rho-associated protein kinase 2 (Homo sapiens) (UniProt O75116); conditions: Compound concentration 1000.0 nM
# [36] = target: Tyrosine-protein kinase receptor TYRO3 (Homo sapiens) (UniProt Q06418); conditions: Compound concentration 1000.0 nM
# Sequence of Tyrosine-protein kinase receptor TYRO3 (Homo sapiens) (Q06418 whole entry): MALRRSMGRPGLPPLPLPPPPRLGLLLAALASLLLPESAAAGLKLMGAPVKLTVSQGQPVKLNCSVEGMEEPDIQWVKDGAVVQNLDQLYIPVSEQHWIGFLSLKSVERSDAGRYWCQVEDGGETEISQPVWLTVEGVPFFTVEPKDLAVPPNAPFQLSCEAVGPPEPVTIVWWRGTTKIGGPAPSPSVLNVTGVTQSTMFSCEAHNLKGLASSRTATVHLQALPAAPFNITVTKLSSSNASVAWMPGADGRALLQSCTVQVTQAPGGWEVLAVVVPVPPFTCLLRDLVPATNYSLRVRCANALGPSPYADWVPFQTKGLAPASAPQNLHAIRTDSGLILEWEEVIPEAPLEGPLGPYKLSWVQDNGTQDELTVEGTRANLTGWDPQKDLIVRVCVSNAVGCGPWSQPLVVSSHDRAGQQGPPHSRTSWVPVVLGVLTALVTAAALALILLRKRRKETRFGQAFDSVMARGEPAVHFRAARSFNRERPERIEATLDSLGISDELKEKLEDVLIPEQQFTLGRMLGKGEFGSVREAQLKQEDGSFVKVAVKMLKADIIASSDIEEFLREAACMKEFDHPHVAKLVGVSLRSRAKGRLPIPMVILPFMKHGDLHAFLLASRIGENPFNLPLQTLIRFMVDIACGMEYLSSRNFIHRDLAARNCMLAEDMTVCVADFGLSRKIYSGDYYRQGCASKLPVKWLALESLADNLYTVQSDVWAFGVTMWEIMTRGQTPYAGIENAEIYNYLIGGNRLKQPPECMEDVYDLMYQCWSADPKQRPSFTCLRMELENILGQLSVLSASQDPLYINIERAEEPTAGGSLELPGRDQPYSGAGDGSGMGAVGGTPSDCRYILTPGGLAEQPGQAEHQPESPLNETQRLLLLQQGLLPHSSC
# [37] = target: Casein kinase II subunit alpha' (Homo sapiens) (UniProt P19784); conditions: Compound concentration 1000.0 nM
# [38] = target: Dual specificity mitogen-activated protein kinase kinase 3 (Homo sapiens) (UniProt P46734); conditions: Compound concentration 1000.0 nM
# [39] = target: Cyclin-dependent kinase 4 (Homo sapiens) (UniProt P11802); conditions: Compound concentration 1000.0 nM
# [40] = tested on: Tyrosine-protein kinase ABL1 (Homo sapiens), P00519 [Q252H]; conditions: Compound concentration 1000.0 nM
# [41] = target: LIM domain kinase 1 (Homo sapiens) (UniProt P53667); conditions: Compound concentration 1000.0 nM
# [42] = target: Maternal embryonic leucine zipper kinase (Homo sapiens) (UniProt Q14680); conditions: Compound concentration 1000.0 nM
# [43] = target: Mitogen-activated protein kinase kinase kinase kinase 3 (Homo sapiens) (UniProt Q8IVH8); conditions: Compound concentration 1000.0 nM
# [44] = target: Focal adhesion kinase 1 (Homo sapiens) (UniProt Q05397); conditions: Compound concentration 1000.0 nM
# Sequence of Focal adhesion kinase 1 (Homo sapiens) (Q05397 2-1052 limits assumed): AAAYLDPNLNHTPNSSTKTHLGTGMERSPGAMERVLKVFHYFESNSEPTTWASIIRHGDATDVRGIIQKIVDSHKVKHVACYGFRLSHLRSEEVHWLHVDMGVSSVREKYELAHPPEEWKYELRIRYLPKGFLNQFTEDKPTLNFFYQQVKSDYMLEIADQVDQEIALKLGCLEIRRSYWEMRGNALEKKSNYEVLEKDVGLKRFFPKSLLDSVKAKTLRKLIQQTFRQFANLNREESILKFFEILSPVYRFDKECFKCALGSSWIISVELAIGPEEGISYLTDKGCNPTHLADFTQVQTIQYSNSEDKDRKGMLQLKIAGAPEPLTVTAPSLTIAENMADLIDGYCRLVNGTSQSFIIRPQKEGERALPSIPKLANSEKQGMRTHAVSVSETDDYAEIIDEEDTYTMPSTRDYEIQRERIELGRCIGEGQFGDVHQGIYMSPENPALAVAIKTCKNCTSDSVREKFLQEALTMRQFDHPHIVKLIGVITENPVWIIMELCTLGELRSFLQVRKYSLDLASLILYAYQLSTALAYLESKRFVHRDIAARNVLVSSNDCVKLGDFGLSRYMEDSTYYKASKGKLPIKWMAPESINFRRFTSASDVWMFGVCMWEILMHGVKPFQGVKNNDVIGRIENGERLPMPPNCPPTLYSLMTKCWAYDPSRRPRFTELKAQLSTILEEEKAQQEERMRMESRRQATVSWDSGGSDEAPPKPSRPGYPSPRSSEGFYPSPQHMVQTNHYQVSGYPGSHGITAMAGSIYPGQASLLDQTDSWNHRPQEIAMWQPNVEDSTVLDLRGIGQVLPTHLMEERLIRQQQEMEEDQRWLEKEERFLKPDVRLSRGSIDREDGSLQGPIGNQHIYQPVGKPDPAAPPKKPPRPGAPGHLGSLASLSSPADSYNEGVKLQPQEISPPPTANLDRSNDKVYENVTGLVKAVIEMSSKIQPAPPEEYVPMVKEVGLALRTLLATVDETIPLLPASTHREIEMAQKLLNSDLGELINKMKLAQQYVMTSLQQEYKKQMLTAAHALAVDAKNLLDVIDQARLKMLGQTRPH
# [45] = target: Mitogen-activated protein kinase kinase kinase 5 (Homo sapiens) (UniProt Q99683); conditions: Compound concentration 1000.0 nM
compound,measurement,setting,value
CCOCCn1cc(C(=O)Nc2ccc(-n3nc(-c4cccnc4)cc3C(F)(F)F)cn2)ccc1=O [BI 1935],residual activity,[1],94%
same,residual activity,[2],100%
same,residual activity,[3],89%
same,residual activity,[4],83%
same,residual activity,[5],89%
same,residual activity,[6],92%
same,residual activity,[7],87%
same,residual activity,[8],89%
same,residual activity,[9],61%
same,residual activity,[10],100%
same,residual activity,[11],100%
same,residual activity,[12],100%
same,residual activity,[13],98%
same,residual activity,[14],100%
same,residual activity,[15],100%
same,residual activity,[16],103%
same,inhibition,[17],-3%
same,residual activity,[18],75%
same,residual activity,[19],100%
same,residual activity,[20],92%
same,inhibition,[21],13.9%
same,residual activity,[22],78%
same,residual activity,[23],92%
same,residual activity,[24],100%
same,residual activity,[25],94%
same,residual activity,[26],91%
same,residual activity,[27],72%
same,residual activity,[28],88%
same,residual activity,[29],83%
same,residual activity,[30],79%
same,residual activity,[31],100%
same,residual activity,[32],73%
same,residual activity,[33],100%
same,residual activity,[34],100%
same,residual activity,[35],88%
same,residual activity,[36],0%
same,residual activity,[37],100%
same,residual activity,[38],83%
same,residual activity,[39],93%
same,residual activity,[40],83%
same,residual activity,[41],84%
same,residual activity,[42],93%
same,residual activity,[43],85%
same,residual activity,[44],100%
same,residual activity,[45],100%
